# Measurements reported in patent publication US20260184691A1, “INHIBITORS AND DEGRADERS OF PIP4K PROTEIN” (Larkspur Biosciences, Inc., priority 2022, published 2026).
# pIC50: −log10 of the molar value.
# Target: T1, Human PIP4K2C (Homo sapiens, UniProt Q8TBX8)
# T1 construct: purchased Eurofins DiscoverX 87-0007-1094
# T1 sequence (Q8TBX8 1-421): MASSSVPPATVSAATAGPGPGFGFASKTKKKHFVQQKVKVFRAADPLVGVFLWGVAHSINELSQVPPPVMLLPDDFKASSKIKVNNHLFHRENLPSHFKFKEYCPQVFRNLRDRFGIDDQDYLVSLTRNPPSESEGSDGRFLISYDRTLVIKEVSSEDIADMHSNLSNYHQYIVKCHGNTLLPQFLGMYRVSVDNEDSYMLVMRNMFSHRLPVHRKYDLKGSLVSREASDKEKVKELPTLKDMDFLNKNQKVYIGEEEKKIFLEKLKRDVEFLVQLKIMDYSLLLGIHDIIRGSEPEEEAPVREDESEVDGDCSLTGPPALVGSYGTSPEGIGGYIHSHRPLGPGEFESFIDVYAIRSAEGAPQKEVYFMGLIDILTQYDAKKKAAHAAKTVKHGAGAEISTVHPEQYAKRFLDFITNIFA
# Assay: Enzyme binding assay (KINOMEscan), active site-directed competition binding
# Conditions: 11-point dose response, duplicate, top concentration 5 micromolar; read-out: Pip4k2c Kd: IC50
# Description: PIP4K2C binding constants disclosed herein were determined using the proprietary Human PIP4K2C binding assay (Catalog number 87-0007-1094, Eurofins DiscoverX, San Diego, CA). This assay measures active site-directed competition binding to an immobilized ligand (see https://doi.org/10.1038/nbt1068, herein incorporated by reference in its entirety). Experiments were conducted using an 11-point dose response curve, in duplicate, with a top starting concentration of 5 micromolar; the Levenberg-Marquardt algorithm was used to fit a Hill equation to dose-response data to calculate IC50 values (see Table 5).
row,Compound,pIC50
1,"COc1cc(-c2ccccc2)cc(-c2nc(Nc3cncc(N4CCCC4=O)c3)ncc2Cl)c1 [Compound 18, 1-(5-((5-chloro-4-(5-methoxy-[1,1′-biphenyl]-3-yl)pyrimidin-2-yl)amino)pyridin-3-yl)pyrrolidin-2-one]",> 6.30
2,"O=C1CCCN1c1cncc(Nc2cc(-c3ccccc3)c(Cl)cn2)c1 [Compound 117, 1-(5-((5-chloro-4-phenylpyridin-2-yl)amino)pyridin-3-yl)pyrrolidin-2-one]",> 6.30
3,"O=C1CCCN1c1cncc(Nc2ncc(Cl)c(-c3ccc(Cl)cc3)n2)c1 [Compound 93, 1-(5-((5-chloro-4-(4-chlorophenyl)pyrimidin-2-yl)amino)pyridin-3-yl)pyrrolidin-2-one]",> 6.30
4,"O=C1CCCN1c1cncc(Nc2ncc(Cl)c(-c3ccn(-c4ccccc4)n3)n2)c1 [Compound 143, 1-(5-((5-chloro-4-(1-phenyl-1H-pyrazol-3-yl)pyrimidin-2-yl)amino)pyridin-3-yl)pyrrolidine-2-one]",> 6.30
5,"O=C1CCCN1c1cncc(Nc2ncc(Cl)c(-c3cccc(-c4ccccc4Cl)c3)n2)c1 [Compound 14, 1-(5-((5-chloro-4-(2′-chloro-[1,1′-biphenyl]-3-yl)pyrimidin-2-yl)amino)pyridin-3-yl)pyrrolidin-2-one]",> 6.30
6,"Cc1ccccc1-c1cccc(-c2nc(Nc3cncc(N4CCCC4=O)c3)ncc2Cl)c1 [Compound 15, 1-(5-((5-chloro-4-(2′-methyl-[1,1′-biphenyl]-3-yl)pyrimidin-2-yl)amino)pyridin-3-yl)pyrrolidin-2-one]",> 6.30
7,"CN1CC2(CC(=O)N(c3cncc(Nc4ncc(Cl)c(-c5cccc(-c6ccccc6)c5)n4)c3)C2)C1 [Compound 35, 6-(5-((4-([1,1′-biphenyl]-3-yl)-5-chloropyrimidin-2-yl)amino)pyridin-3-yl)-2-methyl-2,6-diazaspiro[3.4]octan-7-one]",> 6.30
8,"O=C1CCCN1c1cncc(Nc2ncc(Cl)c(-c3cccc(-c4ccc(Cl)c(Cl)c4)c3)n2)c1 [Compound 2, 1-(5-((5-chloro-4-(3′,4′-dichloro-[1,1′-biphenyl]-3-yl)pyrimidin-2-yl)amino)pyridin-3-yl)pyrrolidin-2-one]",> 6.30
9,"CC(=O)N1CC2(CC(=O)N(c3cncc(Nc4ncc(Cl)c(-c5cccc(-c6ccccc6)c5)n4)c3)C2)C1 [Compound 36, 6-(5-((4-([1,1′-biphenyl]-3-yl)-5-chloropyrimidin-2-yl)amino)pyridin-3-yl)-2-acetyl-2,6-diazaspiro[3.4]octan-7-one]",> 6.30
10,"O=C1CCCN1c1cncc(Nc2ncc(Cl)c(-c3cccc(Cl)c3)n2)c1 [Compound 92, 1-(5-((5-chloro-4-(3-chlorophenyl)pyrimidin-2-yl)amino)pyridin-3-yl)pyrrolidin-2-one]",> 6.30
11,"O=C1N(c2cncc(Nc3ncc(Cl)c(-c4cccc(-c5ccccc5)c4)n3)c2)CCC12CCNCC2 [Compound 1, 2-(5-((4-([1,1′-biphenyl]-3-yl)-5-chloropyrimidin-2-yl)amino)pyridin-3-yl)-2,8-diazaspiro[4.5]decan-1-one]",> 6.30
12,"CC(C)c1cccc(-c2nc(Nc3cncc(N4CCCC4=O)c3)ncc2Cl)c1 [Compound 98, 1-(5-((5-chloro-4-(3-isopropylphenyl)pyrimidin-2-yl)amino)pyridin-3-yl)pyrrolidin-2-one]",> 6.30
13,"O=C1CCCN1c1cncc(Nc2ncc(Cl)c(-c3cccc(-c4cnccn4)c3)n2)c1 [Compound 17, 1-(5-((5-chloro-4-(3-(pyrazin-2-yl)phenyl)pyrimidin-2-yl)amino)pyridin-3-yl)pyrrolidin-2-one]",> 6.30
14,"O=C1CCCN1c1cncc(Nc2ncc(Cl)c(-c3cc(-c4ccccc4)ccc3Cl)n2)c1 [Compound 20, 1-(5-((5-chloro-4-(4-chloro-[1,1′-biphenyl]-3-yl)pyrimidin-2-yl)amino)pyridin-3-yl)pyrrolidin-2-one]",> 6.30

# Now from value to compound:
row,pIC50,Compound
1,> 6.30,"O=C1CCCN1c1cncc(Nc2ncc(Cl)c(-c3cnn(C4CCCCC4)c3)n2)c1 [Compound 139, 1-[5-[[5-chloro-4-(1-cyclohexylpyrazol-4-yl)pyrimidin-2-yl]amino]-3-pyridyl]pyrrolidin-2-one]"
2,> 6.30,"O=C(c1ccc[nH]c1=O)N1CCCC(c2nc(Nc3cncc(N4CCCC4=O)c3)ncc2Cl)C1 (stereo not drawn) [Compound 165, 3-(3-(5-chloro-2-((5-(2-oxopyrrolidin-1-yl)pyridin-3-yl)amino)pyrimidin-4-yl)piperidine-1-carbonyl)pyridin-2(1H)-one]"
3,> 6.30,"O=C1CCCN1c1cncc(Nc2ncc(Cl)c(N3CCCCC3)n2)c1 [Compound 96, 1-(5-((5-chloro-4-(piperidin-1-yl)pyrimidin-2-yl)amino)pyridin-3-yl)pyrrolidin-2-one]"
4,> 6.30,"O=C1CCCN1c1cncc(Nc2ncc(Cl)c(-c3cccc(N4CCCCC4)c3)n2)c1 [Compound 38, 1-(5-((5-chloro-4-(3-(piperidin-1-yl)phenyl)pyrimidin-2-yl)amino)pyridin-3-yl)pyrrolidin-2-one]"
5,> 6.30,"O=C1CCCN1c1cncc(Nc2ncc(Cl)c(N3CCc4ccccc4C3)n2)c1 [Compound 128, 1-(5-((5-chloro-4-(3,4-dihydroisoquinolin-2(1H)-yl)pyrimidin-2-yl)amino)pyridin-3-yl)pyrrolidin-2-one]"
6,> 6.30,"O=C1CCCN1c1cncc(Nc2ncc(Cl)c(N3CCCC(c4ccccc4)C3)n2)c1 (stereo not drawn) [Compound 24, 1-(5-((5-chloro-4-(3-phenylpiperidin-1-yl)pyrimidin-2-yl)amino)pyridin-3-yl)pyrrolidin-2-one]"
7,> 6.30,"O=C1CCCN1c1cncc(Nc2ncc(Cl)c(N3CCCC(C4CCCC4)C3)n2)c1 (stereo not drawn) [Compound 131, 1-(5-((5-chloro-4-(3-cyclopentylpiperidin-1-yl)pyrimidin-2-yl)amino)pyridin-3-yl)pyrrolidin-2-one]"
8,> 6.30,"CCCCNC(=O)C1CCCN(c2nc(Nc3cncc(N4CCCC4=O)c3)ncc2Cl)C1 (stereo not drawn) [Compound 109, N-butyl-1-(5-chloro-2-((5-(2-oxopyrrolidin-1-yl)pyridin-3-yl)amino)pyrimidin-4-yl)piperidine-3-carboxamide]"
9,> 6.30,"O=C1CCCN1c1cncc(Nc2ncc(Cl)c(N3CCCC(C(F)(F)F)C3)n2)c1 (stereo not drawn) [Compound 101, 1-(5-((5-chloro-4-(3-(trifluoromethyl)piperidin-1-yl)pyrimidin-2-yl)amino)pyridin-3-yl)pyrrolidin-2-one]"
10,> 6.30,"CC(=O)N1CCCC(c2cccc(-c3nc(Nc4cncc(N5CCCC5=O)c4)ncc3Cl)c2)C1 (stereo not drawn) [Compound 34, 1-(5-((4-(3-(1-acetylpiperidin-3-yl)phenyl)-5-chloropyrimidin-2-yl)amino)pyridin-3-yl)pyrrolidin-2-one]"
11,> 6.30,"O=C1CCCN1c1cncc(Nc2ncc(Cl)c(-c3cnn(C4CCCC4)c3)n2)c1 [Compound 138, 1-[5-[[5-chloro-4-(1-cyclopentylpyrazol-4-yl)pyrimidin-2-yl]amino]-3-pyridyl]pyrrolidin-2-one]"
12,> 6.30,"O=C1CCCN1c1cncc(Nc2ncc(Cl)c(C3CCCCC3)n2)c1 [Compound 97, 1-(5-((5-chloro-4-cyclohexylpyrimidin-2-yl)amino)pyridin-3-yl)pyrrolidin-2-one]"
13,> 6.30,"O=C1CCCN1c1cncc(Nc2ncc(Cl)c(C3CCCN(C4CC4)C3)n2)c1 (stereo not drawn) [Compound 149, 1-(5-((5-chloro-4-(1-cyclopropylpiperidin-3-yl)pyrimidin-2-yl)amino)pyridin-3-yl)pyrrolidin-2-one]"
14,> 6.30,"CC1CCCN(c2nc(Nc3cncc(N4CCCC4=O)c3)ncc2Cl)C1 (stereo not drawn) [Compound 100, 1-(5-((5-chloro-4-(3-methylpiperidin-1-yl)pyrimidin-2-yl)amino)pyridin-3-yl)pyrrolidin-2-one]"
15,6.00 to 6.30,"O=C1CCCN1c1cncc(Nc2ncc(Cl)c(N3CCC(C4CCCCC4)C3)n2)c1 (stereo not drawn) [Compound 45, 1-(5-((5-chloro-4-(3-cyclohexylpyrrolidin-1-yl)pyrimidin-2-yl)amino)pyridin-3-yl)pyrrolidin-2-one]"
16,6.00 to 6.30,"Cc1cc(-c2nc(Nc3cncc(N4CCCC4=O)c3)ncc2Cl)ccn1 [Compound 105, 1-(5-((5-chloro-4-(2-methylpyridin-4-yl)pyrimidin-2-yl)amino)pyridin-3-yl)pyrrolidin-2-one]"
17,> 6.30,"O=C1CCCN1c1cncc(Nc2ncc(F)c(-c3ccc(=O)n(C4CCC4)c3)n2)c1 [Compound 157, 1-cyclobutyl-5-(5-fluoro-2-((5-(2-oxopyrrolidin-1-yl)pyridin-3-yl)amino)pyrimidin-4-yl)pyridin-2(1H)-one]"
18,> 6.30,"O=C1CCCN1c1cncc(Nc2ncc(Cl)c(N3CCC(N4CCCC4)C3)n2)c1 (stereo not drawn) [Compound 37, 1-(5-((4-([1,3′-bipyrrolidin]-1′-yl)-5-chloropyrimidin-2-yl)amino)pyridin-3-yl)pyrrolidin-2-one]"
19,> 6.30,"O=C1CCCN1c1cncc(Nc2ncc(Cl)c(-c3ccc(C4CC4)cc3)n2)c1 [Compound 13, 1-(5-((5-chloro-4-(4-cyclopropylphenyl)pyrimidin-2-yl)amino)pyridin-3-yl)pyrrolidin-2-one]"
